# How the values were obtained:
# [1] = molecular target: T1, CDK2/CycE (Homo sapiens, UniProt P24941); experiment: CDK2/CycE kinase assay (TR-FRET, 2 mM ATP); assay type: biochemical; settings: 2 mM ATP (high ATP); median; read-out: CDK2/CyclinE, 2 mM ATP (high ATP), IC50 (median)
# T1 construct: purchased ProQinase GmbH (Freiburg, Germany); host or cells: insect cells (Sf9)
# In short: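 Biotin-peptide phosphorylation (0.75 µM substrate, 2 mM ATP final, 25 min, 22 °C) by Sf9-expressed GST-CDK2/GST-CycE, after a 15-min compound pre-binding step. Inhibition scaled between enzyme-free (100%) and uninhibited (0%) wells.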
# [2] = test system: MDA-MB-231, human breast cancer cells; experiment: Proliferation assay MDA-MB-231 (crystal violet, 4 days); assay type: cell-based; settings: Homo sapiens, MDA-MB-231, 96 h, MDA-MB-231 cells, median, read-out: Prolif-MDA MB-231, IC50-[mol/l] (median)
# In short: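 IC50 from a 4-parameter fit of crystal violet absorbance (595 nm), scaled between the day-of-dosing plate (0%) and vehicle cells (100%). MDA-MB-231 or CAL-120 cells were treated for 4 days with 0.01–10 micromol/L compound in 0.1% DMSO after 24 h attachment.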
# [3] = test system: BRCA1 mRNA expression in MDA-MB-231 cells; experiment: qRT-PCR assay: BRCA1 mRNA expression in MDA-MB-231; assay type: cell-based, human; settings: Homo sapiens, MDA-MB-231, Inhibition of BRCA1 mRNA expression in MDA-MB-231 cells; median; read-out: RTqPCR-MDA-MB-231, IC50, BRCA1 (median)
# In short: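 BRCA1 transcript by RT-qPCR relative to GAPDH, from 600 ng RNA converted to cDNA. MDA-MB-231 cells plated at 200,000/well received test compound continuously for 24 h, starting 24 h post-seeding.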
structure (smiles),measurement,setting,value
"c1ccc2[nH]c(CNc3nc(N4C[C@@H]5CCCN[C@@H]5C4)nc4c(C5CC5)cnn34)nc2c1 [Example 249, N-[(1H-benzimidazol-2-yl)methyl]-8-cyclopropyl-2-[(4aS,7aS)-octahydro-6H-pyrrolo[3,4-b]pyridin-6-yl]pyrazolo[1,5-a][1,3,5]triazin-4-amine]",IC50,[1],> 20000 nM
same,IC50,[2],40.3 nM
same,IC50,[3],5.69 nM
"Cc1ccnc2[nH]c(CNc3nc(N4CCOCC4)nc4c(Br)cnn34)nc12 [Example 20, 8-bromo-N-[(7-methyl-3H-imidazo[4,5-b]pyridin-2-yl)methyl]-2-(morpholin-4-yl)pyrazolo[1,5-a][1,3,5]triazin-4-amine]",IC50,[1],1720 nM
same,IC50,[2],31 nM
same,IC50,[3],6.81 nM
"Fc1ccc2[nH]c(CNc3nc(N4CCOCC4)nc4c(C5CCC5)cnn34)nc2c1F [Example 264, 8-cyclobutyl-N-[(4,5-difluoro-1H-benzimidazol-2-yl)methyl]-2-(morpholin-4-yl)pyrazolo[1,5-a][1,3,5]triazin-4-amine]",IC50,[1],> 20000 nM
same,IC50,[2],23 nM
same,IC50,[3],6.32 nM
"CN[C@@H]1CCN(c2nc(NCc3nc4ccccc4[nH]3)n3ncc(Br)c3n2)C1 [Example 253, N-[(1H-benzimidazol-2-yl)methyl]-8-bromo-2-[(3R)-3-(methylamino)pyrrolidin-1-yl]pyrazolo[1,5-a][1,3,5]triazin-4-amine]",IC50,[1],12200 nM
same,IC50,[2],32.8 nM
same,IC50,[3],20.8 nM
"Fc1ccc2[nH]c(CNc3nc(N4C[C@H]5CC[C@@H](C4)N5)nc4c(C5CC5)cnn34)nc2c1F [Example 294, 8-cyclopropyl-2-[(1R,5S)-3,8-diazabicyclo[3.2.1]octan-3-yl]-N-[(4,5-difluoro-1H-benzimidazol-2-yl)methyl]pyrazolo[1,5-a][1,3,5]triazin-4-amine]",IC50,[1],17200 nM
same,IC50,[2],3.37 nM
same,IC50,[3],1.16 nM
"Fc1ccc2[nH]c(CNc3nc(N4CC5CCC(C4)N5)nc4c(C(F)(F)F)cnn34)nc2c1F [Example 310, 2-(3,8-diazabicyclo[3.2.1]octan-3-yl)-N-[(4,5-difluoro-1H-benzimidazol-2-yl)methyl]-8-(trifluoromethyl)pyrazolo[1,5-a][1,3,5]triazin-4-amine]",IC50,[1],> 18600 nM
same,IC50,[2],3.48 nM
same,IC50,[3],35.1 nM
"Brc1cnn2c(NCc3nc4ccccc4[nH]3)nc(NCC3CC3)nc12 [Example 284, N^4-[(1H-benzimidazol-2-yl)methyl]-8-bromo-N^2-(cyclopropylmethyl)pyrazolo[1,5-a][1,3,5]triazine-2,4-diamine]",IC50,[1],1990 nM
same,IC50,[2],73.5 nM
same,IC50,[3],24.2 nM
"N[C@H]1CN(c2nc(NCc3nc4ccccc4[nH]3)n3ncc(Br)c3n2)CC12CC2 [Example 259, 2-[(7R)-7-amino-5-azaspiro[2.4]heptan-5-yl]-N-[(1H-benzimidazol-2-yl)methyl]-8-bromopyrazolo[1,5-a][1,3,5]triazin-4-amine]",IC50,[1],1400 nM
same,IC50,[2],31.9 nM
same,IC50,[3],11.4 nM
"COc1ccc2[nH]c(CNc3nc(N4CCOCC4)nc4c(C(F)(F)F)cnn34)nc2c1 [Example 257, N-[(5-methoxy-1H-benzimidazol-2-yl)methyl]-2-(morpholin-4-yl)-8-(trifluoromethyl)pyrazolo[1,5-a][1,3,5]triazin-4-amine]",IC50,[1],16100 nM
same,IC50,[2],10.7 nM
same,IC50,[3],6.97 nM
"N[C@@H]1CN(c2nc(NCc3nc4ccccc4[nH]3)n3ncc(Br)c3n2)CC12CC2 [Example 251, 2-[(7S)-7-amino-5-azaspiro[2.4]heptan-5-yl]-N-[(1H-benzimidazol-2-yl)methyl]-8-bromopyrazolo[1,5-a][1,3,5]triazin-4-amine]",IC50,[1],2580 nM
same,IC50,[2],2.73 nM
same,IC50,[3],1.49 nM
"Fc1ccc2[nH]c(CNc3nc(N4CCOCC4)nc4c(C5CC5(F)F)cnn34)nc2c1 (racemic) [Example 286, 8-[(1RS)-2,2-difluorocyclopropyl]-N-[(5-fluoro-1H-benzimidazol-2-yl)methyl]-2-(morpholin-4-yl)pyrazolo[1,5-a][1,3,5]triazin-4-amine]",IC50,[1],> 20000 nM
same,IC50,[2],20 nM
same,IC50,[3],10.6 nM
"Brc1cnn2c(NCc3nc4ccncc4[nH]3)nc(N3CCOCC3)nc12 [Example 22, 8-bromo-N-[(3H-imidazo[4,5-c]pyridin-2-yl)methyl]-2-(morpholin-4-yl)pyrazolo[1,5-a][1,3,5]triazin-4-amine]",IC50,[1],15500 nM
same,IC50,[2],593 nM
same,IC50,[3],131 nM
"Brc1cnn2c(NCc3nc4ccccc4[nH]3)nc(N3C[C@H]4CNC[C@H]4C3)nc12 [Example 283, N-[(1H-benzimidazol-2-yl)methyl]-8-bromo-2-[(3aR,6aS)-hexahydropyrrolo[3,4-c]pyrrol-2(1H)-yl]pyrazolo[1,5-a][1,3,5]triazin-4-amine]",IC50,[1],7620 nM
same,IC50,[2],35 nM
same,IC50,[3],9.13 nM
"Brc1cnn2c(NCc3nnc(-c4ccccc4)[nH]3)nc(N3CCOCC3)nc12 [Example 24, 8-bromo-2-(morpholin-4-yl)-N-[(5-phenyl-4H-1,2,4-triazol-3-yl)methyl]pyrazolo[1,5-a][1,3,5]triazin-4-amine]",IC50,[1],2320 nM
same,IC50,[2],53.3 nM
same,IC50,[3],10 nM
"FC(F)(F)Cc1cnn2c(NCc3nc4cc(Cl)ccc4[nH]3)nc(N3CCOCC3)nc12 [Example 299, N-[(5-chloro-1H-benzimidazol-2-yl)methyl]-2-(morpholin-4-yl)-8-(2,2,2-trifluoroethyl)pyrazolo[1,5-a][1,3,5]triazin-4-amine]",IC50,[1],> 20000 nM
same,IC50,[2],8.53 nM
same,IC50,[3],8.86 nM
"Fc1cc2nc(CNc3nc(N4CCOCC4)nc4c(C5CC5)cnn34)[nH]c2cc1F [Example 318, 8-cyclopropyl-N-[(5,6-difluoro-1H-benzimidazol-2-yl)methyl]-2-(morpholin-4-yl)pyrazolo[1,5-a][1,3,5]triazin-4-amine]",IC50,[1],> 20000 nM
same,IC50,[2],4.22 nM
same,IC50,[3],0.97 nM
"Fc1cccc2[nH]c(CNc3nc(N4CCOCC4)nc4c(CC(F)(F)F)cnn34)nc12 [Example 303, N-[(4-fluoro-1H-benzimidazol-2-yl)methyl]-2-(morpholin-4-yl)-8-(2,2,2-trifluoroethyl)pyrazolo[1,5-a][1,3,5]triazin-4-amine]",IC50,[1],> 20000 nM
same,IC50,[2],26.5 nM
same,IC50,[3],4.79 nM
"CN(CC(C)(C)O)c1nc(NCc2nc3cc(Cl)c(Cl)cc3[nH]2)n2ncc(C3CC3)c2n1 [Example 306, 1-[(8-cyclopropyl-4-{[(5,6-dichloro-1H-benzimidazol-2-yl)methyl]amino}pyrazolo[1,5-a][1,3,5]triazin-2-yl)(methyl)amino]-2-methylpropan-2-ol]",IC50,[1],> 20000 nM
same,IC50,[2],7.83 nM
same,IC50,[3],6.94 nM
"c1ccc2[nH]c(CNc3nc(N4CCNCC4)nc4c(C5CC5)cnn34)nc2c1 [Example 247, N-[(1H-benzimidazol-2-yl)methyl]-8-cyclopropyl-2-(piperazin-1-yl)pyrazolo[1,5-a][1,3,5]triazin-4-amine]",IC50,[1],> 20000 nM
same,IC50,[2],50.7 nM
same,IC50,[3],5.55 nM
"Cc1cc2nc(CNc3nc(N4CCN(C)CC4)nc4c(C5CC5)cnn34)[nH]c2cc1C [Example 312, 8-cyclopropyl-N-[(5,6-dimethyl-1H-benzimidazol-2-yl)methyl]-2-(4-methylpiperazin-1-yl)pyrazolo[1,5-a][1,3,5]triazin-4-amine]",IC50,[1],> 12500 nM
same,IC50,[2],3.21 nM
same,IC50,[3],2.04 nM

# — patent publication US20230117034A1, “PYRAZOLOTRIAZINES” (Bayer Aktiengesellschaft, priority 2019, published 2023)
